The subject of one series is ITGA5. In words: RT-qPCR expression of aging-related gene ITGA5 in HEKa. The series is classed as cell-based, human. The note with it: 0.01 mg/mL, 24 h. (In general: Quantitative PCR measures a nucleic acid by following its amplification.)
Another series has as its system CALR. Description: RT-qPCR expression of CALR gene in HEKa. The conditions noted are these: 0.01 mg/mL.
The test system of a further series is Collagen I (COL1). In words: Collagen I immunostaining in HDF treated with conditioned media from peptide-treated keratinocytes. The series is classed as cell-based, human. The conditions noted are these: 4 days of treatment with conditioned medium from peptide-treated keratinocytes (Figure 8). Here is the method:
For TGFβ3 gene expression assessment, HEKa cells were seeded in 24-well plate at a density of […] and incubated at 37 °C in a humidified atmosphere with 5% CO2. Next day, cell culture media was replaced by fresh media containing 0.0025 or 0.01 mg/mL of cycled peptide B. In parallel, HDF cells were seeded on culture plates with or without coverslips (for immunofluorescence or qPCR, respectively) and incubated for 24 h.
Conditioned media from HEKa cells after 48 hours of treatment was then transferred to HDF culture plates. Cells were maintained in culture for additional 24h (for qPCR) or for 4 days (for collagen I immunostaining).
For the evaluation of collagen I (COLI) synthesis by immunostaining, HDF cells treated with HEKa conditioned media (as explained above) were washed twice with PBS, fixed with 4% formaldehyde and permeabilized with Triton X-100 0.2%. Next, samples were blocked for 1 hour with PBS/BSA 5%, in order to avoid nonspecific antibody binding. For collagen I staining, samples were incubated for 2 hours with Monoclonal Anti-Collagen, Type I antibody diluted 1:100 in PBS/BSA 1%, at room temperature. […] Images were analyzed using Image J software as mentioned above.

In a further series the test system is MMP3 and MMP1. Description: qPCR expression of metalloproteases in HDFa. It is filed as cell-based, human. The note with it: 24 hours, 0.01 mg/mL, compared with linear form (Figure 6C). Here is the method: HDFa cells were seeded in duplicate (n=2) in 12-well plates at a concentration of 200.000 cells/well in 106 Medium supplemented with 2% LSGS. Then, cells were incubated at 37 °C in a humidified atmosphere with 5% CO2. Next, cells were treated with cycled peptide B at different non-toxic concentrations for 6 or 24 hours. Untreated cells were used as basal control. Cells were then lysed, and replicates were pooled together for RNA extraction using Qiagen RNeasy Mini kit following manufacturer's instructions. Purified RNAs was then quantified by nanodrop, adjusted in concentration and processed for retrotranscription to cDNA using a commercially available kit (High-Capacity cDNA Reverse Transcription kit - Thermofisher Scientific, USA). Resulting cDNA was used to perform a RTqPCR using Taqman technology, and a panel of probes designed to target different type of collagens and their respective matrix metalloproteinases.
Metalloproteases (MMP) are enzymes responsible of extracellular matrix degradation, also important in skin aging. The expression of MMP genes in HDFa cells was measured by qPCR after 24 hours of treatment with 0.01 mg/mL of peptide B and its linear form.

Experimental for CALR: HEKa cells were incubated in the presence of 0.01 mg/mL cycled peptide B for 24 hours and HDFa cells were treated with 0.05 mg/mL of cycled peptide B for 6 h. Then, cells were lysed, and RNA was extracted (RNeasy mini kit, Qiagen). Purified RNAs were retro-transcribed (High-capacity cDNA reverse transcription kit, Applied Biosystems). RT-qPCR was performed with the panel of TaqMan assay probes (Thermo Fisher Scientific) using StepOne plus Real time PCR instrument. […] The obtained data were analyzed using the ΔΔCt method, which provides the target gene expression values as fold changes in the treated sample compared with an untreated basal sample. Both samples were normalized with the relative expression of the housekeeping gene GAPDH.
Additionally, expression of CALR after treatment with 0.01 mg/mL of cycled peptides A and B for 24 hours in HEKa cells was analyze by qPCR as described in example 3.
Experimental for ITGA5: Then, cells were lysed, and RNA was extracted (RNeasy mini kit, Qiagen). Purified RNAs were retro-transcribed (High-capacity cDNA reverse transcription kit, Applied Biosystems). RT-qPCR was performed with the panel of TaqMan assay probes (Thermo Fisher Scientific) using StepOne plus Real time PCR instrument. […] The obtained data were analyzed using the ΔΔCt method, which provides the target gene expression values as fold changes in the treated sample compared with an untreated basal sample. Both samples were normalized with the relative expression of the housekeeping gene GAPDH.

As for `CC(C)C[C@@H]1NC(=O)[C@H](C)NC(=O)[C@H](Cc2c[nH]cn2)NC(=O)[C@H](Cc2c[nH]c3ccccc23)NC(=O)[C@H](Cc2ccccc2)NC(=O)[C@H](CCCNC(=N)N)NC1=O` [Peptide B, cyclo-Phe-Trp- His- Ala-Leu-Arg], the “Fold change vs. Basal” value with ITGA5 amounted to 1.84; in the series on CALR (CALR, 24 h (Table 3)), 2.67. For the same compound, the Mean normalized expression with ITGA5 (normalized to GAPDH) was determined as 1.15E-01; with CALR (CALR, 24 h, normalized to GAPDH), 6.83E-01. Further, the “CALR expression, Effect” value in the series with CALR (24 hours, qPCR (Table 5)) is reported as “Upregulation”. Also, the “CALR expression, Ratio” value in the series on CALR (24 hours, qPCR (Table 5), Basal = 1.00) is reported as 1.78. For the same compound, in the series with Collagen I (COL1), the “Collagen I (COL1) levels” value is recorded as “significantly increased”. Besides, the “regulation of MMP3 and MMP1 expression” value with MMP3 and MMP1 is reported as “reduces the expression of enzymes involved in collagen degradation”.

The record behind these values is patent publication EP4417190A1, “CYCLIC PEPTIDES WITH ANTI-AGING EFFICACY” (Lipotrue, S.L., priority 2023, dated 2024).
